Experimental data reported in patent publication US20250057772A1, “ORAL DOSAGE FORM WITH IONICALLY CHARGEABLE HYDROGEL FOR DELIVERY OF ACTIVE AGENT” (Entrega Inc., priority 2022, published 2025).
Blank lines part the entries; values can stand above or below the compound they belong to.

How the values were obtained:
[1] = Exclusion or binding of ionic agents by Hydrogel #3.02, exterior fluid concentration by UV absorbance; format: physicochemical
Experimental: Sodium caprate (sodium decanoate) is a known intestinal permeation enhancer with a negative charge (negative charge on the caprate). Sodium caprate (280 mg) was dissolved in 5 mL of modified pH 7 FASSIF buffer.
The intestinal permeation enhancer, sodium caprate (280 mg) was added.
Octreotide (as octreotide acetate) is an FDA approved therapeutic peptide with a molecular weight of 1019 g/mole and a net positive charge at pH below 8 (isoelectric point of octreotide=8.5). Octreotide (5 mg) was dissolved in 5 mL of modified FASSIF buffer at pH 7 (resulting in a starting concentration of 1 mg/mL).
Lanreotide is an FDA approved therapeutic peptide with a molecular weight of 1096 g/mole and a net positive charge at pH below 8. Lanreotide (5 mg) was dissolved in 5 mL of modified FASSIF buffer at pH 7.
Lanreotide is an FDA approved therapeutic peptide with a molecular weight of 1096 g/mole and a net positive charge at pH below 8. Lanreotide (5 mg) was dissolved in 5 mL of deionized water.

[2] = published values; cited from earlier work
[3] = Evans Blue exclusion procedure; format: physicochemical; conditions: 0.125 mg/mL Evans Blue in FASSIF buffer pH 7, hydrogel #12.035 for 40, 60, 80, 90% fluid uptake; p<0.001 vs no hydrogel
From the text: Commercially obtained Evan's blue dye was used as a surrogate marker for an anionic drug in hydrogel testing. It has a molecular weight of 961.8 g/mole and has four negative charges at pH 7 due to four sulfonate groups in the structure. Its visible light absorbance at 605 nm provides an easy way to monitor the concentration of the dye when exposed to the hydrogel in solution.
FASSIF buffer was created by adding 41.65 g of FASSIF buffer concentrate (Biorelevant Media, code FaSSIF) to 961.1 g DI water and stirred until completely mixed. Evans Blue solution was created by adding Evans Blue to approximately half of the FASSIF solution such that the final concentration of the media is 0.125 mg/mL Evans Blue.
5 mL of Evans Blue solution was added to a 15 mL centrifuge tube (EB Tube). 5 mL of FASSIF buffer (without Evans Blue) was added to another 15 mL tube (Background Tube). 200 mg of sub-63 um hydrogel #12.035 was added to both tubes. Vortexed tubes until fully mixed and placed both tubes on rocker plate for 15 minutes. After 15 minutes, both tubes were centrifuged at 3000 g for 1 minute. (N=3) 20 μL samples were extracted from the supernatant of both tubes and diluted into 180 μL of DI water in 96-well UV-clear plate. […] The plate was read for absorbance at 605 nm.
The absorbance reading samples from each group were averaged. […]

- concentration in the exterior fluid ([1]; 5 mg in 5 mL modified FASSIF pH 7 (start 1 mg/mL), Hydrogel #3.02 300 mg, after 10 minutes): less than 0.8 mg/mL
SMILES: C[C@@H](O)[C@@H]1NC(=O)[C@H](CCCCN)NC(=O)[C@@H](Cc2c[nH]c3ccccc23)NC(=O)[C@H](Cc2ccccc2)NC(=O)[C@@H](NC(=O)[C@H](N)Cc2ccccc2)CSSC[C@@H](C(=O)N[C@H](CO)[C@@H](C)O)NC1=O [Octreotide]

SMILES: CCCN [propylamine]
- pKa [2]: ~10.7

SMILES: COS(=O)(=O)O [methanesulfate]
- pKa [2]: −3.4

SMILES: CCS(=O)(=O)O [ethanesulfonic acid]
- pKa [2]: −1.68

SMILES: CC(C)[C@@H]1NC(=O)[C@H](CCCCN)NC(=O)[C@@H](Cc2c[nH]c3ccccc23)NC(=O)[C@H](Cc2ccc(O)cc2)NC(=O)[C@@H](NC(=O)[C@H](N)Cc2ccc3ccccc3c2)CSSC[C@@H](C(=O)N[C@H](C(N)=O)[C@@H](C)O)NC1=O [Lanreotide]
- concentration in the exterior fluid ([1]; 5 mg in 5 mL deionized water, Hydrogel #3.02 300 mg, after 25 minutes): less than 0.05 mg/mL
- concentration in the exterior fluid ([1]; 5 mg in 5 mL modified FASSIF pH 7, Hydrogel #3.02 300 mg, after 25 minutes): ~300 µg/mL

- concentration of caprate in the exterior fluid relative to initial concentration ([1]; 280 mg in 5 mL modified pH 7 FASSIF, Hydrogel #3.02 300 mg): ~1.4 times the initial concentration
SMILES: CCCCCCCCCC(=O)[O-].[Na+] [Sodium caprate, sodium decanoate]

- relative concentration of the dye as hydrogel is added [3]: increasing concentration
SMILES: Cc1cc(-c2ccc(/N=N/c3ccc4c(S(=O)(=O)O)cc(S(=O)(=O)O)c(N)c4c3O)c(C)c2)ccc1/N=N/c1ccc2c(S(=O)(=O)O)cc(S(=O)(=O)O)c(N)c2c1O [Evans Blue]
